{
  "source": "paper PMC11149917",
  "about": "“Translational and Therapeutic Evaluation of RAS-GTP Inhibition by RMC-6236 in RAS-Driven Cancers” (Cancer Discovery, 2024)",
  "test_system": "PRISM panel of 845 cancer cell lines",
  "experiment": "PRISM assay",
  "assay_type": "cell-based, human",
  "experimental": "The PRISM cell set comprised 845 cell lines representing more than 45 lineages (see Supplementary Table S1 for cell line information), which largely overlapped with the Cancer Cell Line Encyclopedia; https://portals.broadinstitute.org/ccle). Cell lines were grown in RPMI without phenol red and supplemented with 10% or 20% FBS for adherent and suspended lines, respectively. Parental cell lines were stably infected with a unique 24-nucleotide DNA barcode via lentiviral transduction and blasticidin selection. After selection, barcoded cell lines were expanded and subjected to quality control (Mycoplasma contamination test, an SNP test for confirming cell line identity, and barcode ID confirmation). Approved cell lines were then pooled (20–25 cell lines per pool) based on doubling time similarity and frozen in assay-ready vials.\nRMC-6236 was added to 384-well plates at 8-point concentration with 3-fold dilutions in triplicate. These assay-ready plates were then seeded with the thawed cell line pools. Adherent cell pools were plated at 1,250 cells per well, whereas suspension and mixed adherent/suspension pools were plated at 2,000 cells per well. Treated cells were incubated for 5 days, and then lysed. Lysate plates were collapsed together prior to barcode amplification and detection.\nEach cell line's unique barcode is located in the 3′UTR of the blasticidin-resistance gene and therefore is expressed as mRNA. Total mRNA was captured using magnetic particles that recognize polyA sequences. Captured mRNA was reverse-transcribed into cDNA and then the sequence containing the unique PRISM barcode was amplified using PCR. Finally, Luminex beads that recognize the specific barcode sequences in the cell set were hybridized to the PCR products and detected using a Luminex scanner which reports the signal as a median fluorescent intensity (MFI).\n• Each detection well contained 10 control barcodes in increasing abundances as spike-in controls. For each plate, we first create a reference profile by calculating the median of the log2(MFI) values across negative control wells for each of these spiked-in barcodes. • For each well, a monotonic smooth p-spline was fitted to map the spike-in control levels to the reference profile. Next, we transform the log2(MFI) for each cell barcode using the fitted spline to allow well-to-well comparisons by correcting for amplification and detection artifacts. • Next, the separability between negative and positive control treatments was assessed. In particular, we calculated the error rate of the optimum simple threshold classifier between the control samples for each cell line and plate combination. The error rate is a measure of the overlap of the two control sets and was defined as error = (FP + FN)/n, where FP is false positives, FN is false negatives, and n is the total number of controls. A threshold was set between the distributions of positive and negative control log2(MFI) values (with everything below the threshold said to be positive and above said to be negative) such that this value is minimized. Additionally, we also calculated the dynamic range of each cell line. […] Additionally, any cell line that had less than 2 passing replicates was also omitted for the sake of reproducibility. Finally, we computed viability by normalizing with respect to the median negative control for each plate.\nFor every gene with nonsilent mutations in at least four cell lines, we compared the AUC values between cells with and without those mutations using a t test. This analysis was carried out for (i) the full data set; (ii) excluding cell lines with nonsilent KRAS mutations; and (iii) excluding cell lines that have either KRAS or NRAS nonsilent mutations.",
  "data": [
    {"compound": "CCn1c(-c2cc(N3CCN(C)CC3)cnc2[C@H](C)OC)c2c3cc(ccc31)-c1csc(n1)C[C@H](NC(=O)[C@H]1C[C@@H]1C)C(=O)N1CCC[C@H](N1)C(=O)OCC(C)(C)C2", "note": "[RMC-6236]", "values": [
      {"measurement": "RMC-6236: RevMed PRISM: AUC", "setting": "LS411N_LARGE_INTESTINE", "value": 1},
      {"measurement": "RMC-6236: RevMed PRISM: AUC", "setting": "LS_AUTONOMIC_GANGLIA", "value": 1},
      {"measurement": "RMC-6236: RevMed PRISM: AUC", "setting": "MCAS_OVARY, KRAS p.G12D", "value": 0.5822},
      {"measurement": "RMC-6236: RevMed PRISM: AUC", "setting": "MDAMB361_BREAST", "value": 0.8463},
      {"measurement": "RMC-6236: RevMed PRISM: AUC", "setting": "MG63_BONE", "value": 0.9083},
      {"measurement": "RMC-6236: RevMed PRISM: AUC", "setting": "MIAPACA2_PANCREAS, KRAS p.G12C", "value": 0.3158},
      {"measurement": "RMC-6236: RevMed PRISM: AUC", "setting": "MKN1_STOMACH", "value": 0.8375},
      {"measurement": "RMC-6236: RevMed PRISM: AUC", "setting": "MMNK1_BILIARY_TRACT", "value": 1},
      {"measurement": "RMC-6236: RevMed PRISM: AUC", "setting": "MOLP2_HAEMATOPOIETIC_AND_LYMPHOID_TISSUE", "value": 0.8941},
      {"measurement": "RMC-6236: RevMed PRISM: AUC", "setting": "NCIH1373_LUNG, KRAS p.G12C", "value": 0.5175},
      {"measurement": "RMC-6236: RevMed PRISM: AUC", "setting": "NCIH1623_LUNG", "value": 0.9336},
      {"measurement": "RMC-6236: RevMed PRISM: AUC", "setting": "NCIH1792_LUNG, KRAS p.G12C", "value": 0.4194},
      {"measurement": "RMC-6236: RevMed PRISM: AUC", "setting": "NCIH1944_LUNG, KRAS p.G13D", "value": 0.6749},
      {"measurement": "RMC-6236: RevMed PRISM: AUC", "setting": "NCIH2110_LUNG", "value": 0.7265},
      {"measurement": "RMC-6236: RevMed PRISM: AUC", "setting": "NCIH2170_LUNG", "value": 0.8266},
      {"measurement": "RMC-6236: RevMed PRISM: AUC", "setting": "NOZ_LIVER, KRAS p.G12V", "value": 0.4128},
      {"measurement": "RMC-6236: RevMed PRISM: AUC", "setting": "NP3_CENTRAL_NERVOUS_SYSTEM", "value": 0.8074},
      {"measurement": "RMC-6236: RevMed PRISM: AUC", "setting": "NUGC4_STOMACH", "value": 0.5513},
      {"measurement": "RMC-6236: RevMed PRISM: AUC", "setting": "OE21_OESOPHAGUS", "value": 0.7641},
      {"measurement": "RMC-6236: RevMed PRISM: AUC", "setting": "OSRC2_KIDNEY", "value": 0.9503},
      {"measurement": "RMC-6236: RevMed PRISM: AUC", "setting": "OVKATE_OVARY", "value": 0.9428},
      {"measurement": "RMC-6236: RevMed PRISM: AUC", "setting": "PL21_HAEMATOPOIETIC_AND_LYMPHOID_TISSUE, KRAS p.A146V", "value": 0.4905},
      {"measurement": "RMC-6236: RevMed PRISM: AUC", "setting": "PSN1_PANCREAS, KRAS p.G12R", "value": 0.3382},
      {"measurement": "RMC-6236: RevMed PRISM: AUC", "setting": "RDES_BONE", "value": 0.8941},
      {"measurement": "RMC-6236: RevMed PRISM: AUC", "setting": "RERFLCKJ_LUNG", "value": 0.8815},
      {"measurement": "RMC-6236: RevMed PRISM: AUC", "setting": "RKN_SOFT_TISSUE, KRAS p.G12V", "value": 0.3219},
      {"measurement": "RMC-6236: RevMed PRISM: AUC", "setting": "RL_HAEMATOPOIETIC_AND_LYMPHOID_TISSUE", "value": 0.8075},
      {"measurement": "RMC-6236: RevMed PRISM: AUC", "setting": "SKES1_BONE", "value": 0.8643},
      {"measurement": "RMC-6236: RevMed PRISM: AUC", "setting": "SKGT2_STOMACH", "value": 0.6916},
      {"measurement": "RMC-6236: RevMed PRISM: AUC", "setting": "SKHEP1_LIVER", "value": 0.8776},
      {"measurement": "RMC-6236: RevMed PRISM: AUC", "setting": "SNU601_STOMACH, KRAS p.G12D", "value": 0.4515},
      {"measurement": "RMC-6236: RevMed PRISM: AUC", "setting": "SNU1076_UPPER_AERODIGESTIVE_TRACT", "value": 0.4839},
      {"measurement": "RMC-6236: RevMed PRISM: AUC", "setting": "SNU1079_BILIARY_TRACT", "value": 0.8678},
      {"measurement": "RMC-6236: RevMed PRISM: AUC", "setting": "SR786_HAEMATOPOIETIC_AND_LYMPHOID_TISSUE", "value": 0.7042},
      {"measurement": "RMC-6236: RevMed PRISM: AUC", "setting": "SUDHL4_HAEMATOPOIETIC_AND_LYMPHOID_TISSUE", "value": 0.8448},
      {"measurement": "RMC-6236: RevMed PRISM: AUC", "setting": "SUDHL8_HAEMATOPOIETIC_AND_LYMPHOID_TISSUE", "value": 1},
      {"measurement": "RMC-6236: RevMed PRISM: AUC", "setting": "SUIT2_PANCREAS, KRAS p.G12D", "value": 0.6849},
      {"measurement": "RMC-6236: RevMed PRISM: AUC", "setting": "SW626_LARGE_INTESTINE, KRAS p.G12V", "value": 0.3255},
      {"measurement": "RMC-6236: RevMed PRISM: AUC", "setting": "SW1271_LUNG, NRAS p.Q61R", "value": 0.6986},
      {"measurement": "RMC-6236: RevMed PRISM: AUC", "setting": "TC106_BONE", "value": 0.7285},
      {"measurement": "RMC-6236: RevMed PRISM: AUC", "setting": "TE8_OESOPHAGUS", "value": 0.7048},
      {"measurement": "RMC-6236: RevMed PRISM: AUC", "setting": "TT_THYROID", "value": 1},
      {"measurement": "RMC-6236: RevMed PRISM: AUC", "setting": "U2973_HAEMATOPOIETIC_AND_LYMPHOID_TISSUE", "value": 1},
      {"measurement": "RMC-6236: RevMed PRISM: AUC", "setting": "UMUC6_URINARY_TRACT", "value": 0.4621},
      {"measurement": "RMC-6236: RevMed PRISM: AUC", "setting": "UMUC10_URINARY_TRACT", "value": 0.7756},
      {"measurement": "RMC-6236: RevMed PRISM: AUC", "setting": "UMUC11_URINARY_TRACT", "value": 0.952},
      {"measurement": "RMC-6236: RevMed PRISM: AUC", "setting": "VAL_HAEMATOPOIETIC_AND_LYMPHOID_TISSUE", "value": 0.8667},
      {"measurement": "RMC-6236: RevMed PRISM: AUC", "setting": "YD10B_UPPER_AERODIGESTIVE_TRACT", "value": 0.5303},
      {"measurement": "RMC-6236: RevMed PRISM: AUC", "setting": "YD38_UPPER_AERODIGESTIVE_TRACT", "value": 0.4476},
      {"measurement": "RMC-6236: RevMed PRISM: AUC", "setting": "[…]02ER_ENDOMETRIUM", "value": 0.8144},
      {"measurement": "Median AUC (PRISM)", "setting": "mutant copy number gained KRAS", "value": 0.54},
      {"measurement": "Median AUC (PRISM)", "setting": "wild-type KRAS cell lines", "value": 0.78},
      {"measurement": "Median AUC (PRISM)", "setting": "wild-type copy number gained KRAS", "value": 0.84}
    ]}
  ]
}
